{
  "source": "the NIST ThermoML archive (doi:10.1021/acs.jced.6b00686)",
  "note": "± gives the expanded uncertainty stated by the source.",
  "data": [
    {"assay": "refractive index (Na D-line) (dimensionless)", "details": "293.15 K; 101.3 kPa; Liquid; Standard Abbe refractometry", "values": [
      {"compound": "O=C(O)CS", "note": "[2-mercaptoacetic acid]", "refractive index": "1.5027 ± 0.0005"},
      {"compound": "CC(=O)OCC(C)C", "note": "[2-methylpropyl ethanoate]", "refractive index": "1.3905 ± 0.0005"},
      {"compound": "CCCCOC(C)=O", "note": "[butyl ethanoate]", "refractive index": "1.394 ± 0.0005"},
      {"compound": "CCCCOC=O", "note": "[butyl methanoate]", "refractive index": "1.3887 ± 0.0005"},
      {"compound": "O", "note": "[water]", "refractive index": "1.3327 ± 0.0005"}
    ]}
  ]
}
